Source: PubChem BioAssay (NCI)
Values joined by “and” are separate entries in the source; they are usually repeats but may differ in a detail not shown here. Equal entries are not always repeated.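 Each compound was tested at five concentrations against cells in 96-well plates for 48 hours. GI50 is the concentration that inhibits growth by half. TGI: concentration producing complete growth inhibition.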 Where a SMILES comes first, the peptide text is derived from it. The star is where a group is joined. Boc = CC(C)(C)OC(=O)*; Bn = c1ccc(C*)cc1

Columns and labels:
Assay in all cases: DTP human tumour cell line panel, 48 h
COLO 205 colon = tested on: COLO 205 colon
KM12 colon = tested on: KM12 colon
SNB-19 CNS = tested on: SNB-19 CNS

| SMILES | TGI (COLO 205 colon) | TGI (KM12 colon) | TGI (SNB-19 CNS) | GI50 (COLO 205 colon) | GI50 (KM12 colon) [µM] | GI50 (SNB-19 CNS) [µM] |
| --- | --- | --- | --- | --- | --- | --- |
| COc1ccc2c(c1OC)C(=O)N/C2=C\c1c(CCN(C)C)cc2c(c1OC)OCO2 | > 100 µM | > 100 µM | > 100 µM |  |  |  |
| CN1CC2=C(NC(=S)NC2c2ccccc2Cl)/C(=C/c2ccccc2Cl)C1 (configuration not stated) | 60.4 µM | > 100 µM | > 100 µM |  |  |  |
| COc1cc(C2OC[C@@H]3C(=O)OC[C@H]23)cc(O)c1OC (some centres not stated) | > 100 µM | > 100 µM | > 100 µM |  |  |  |
| O=C(NCCCN(CCCCN(CCCNC(=O)c1cc(S(=O)(=O)O)cc(O)c1O)C(=O)c1cc(S(=O)(=O)O)cc(O)c1O)C(=O)c1cc(S(=O)(=O)O)cc(O)c1O)c1cc(S(=O)(=O)O)cc(O)c1O | > 100 µM | > 100 µM | > 100 µM |  |  |  |
| C=C1c2nc3ccccc3n2C=C(c2ccc(Cl)cc2)N1c1ccc(OCCN2CCCCC2)cc1 | > 100 µM | > 100 µM | > 100 µM | > 100 µM | > 100 | 4.53 |
| NC(=O)CCC(NC(=O)c1c2ccccc2nc2ccccc12)C(=O)O (configuration not stated) | > 100 µM | > 100 µM | > 100 µM |  |  |  |
| CC1=N[C@@](C)(C2CC3C=CC2C3=O)COC1=O (some centres not stated) | > 100 µM | > 100 µM | > 100 µM |  |  |  |
| CC1=CC(=O)N(n2c(Cc3ccc(Cl)cc3)n[nH]c2=O)C1=O | > 100 µM | > 100 µM | > 100 µM |  |  |  |
| C=CCCCC1(C)CCNC1=S (configuration not stated) | > 100 µM |  | > 100 µM |  |  |  |
| Cc1cccc(C)c1N=Nc1ccc(O)c(CN(C)C)c1 | 44.8 µM | > 100 µM | > 100 µM |  |  |  |
| Cc1cc(C)nc(NS(=O)(=O)c2ccc(NC(=O)NC(F)(F)F)cc2)n1 | > 100 µM |  | > 100 µM |  |  |  |
| O=c1[nH]nc(Cc2ccccc2)n1/N=C/c1ccc([N+](=O)[O-])cc1 | > 100 µM | > 100 µM |  |  |  |  |
| O=C1/C(=C/c2ccc(O)c(O)c2)CC/C1=C\c1ccc(O)c(O)c1 | > 86.8 µM | > 100 µM | 66.4 µM |  |  |  |
| CCC1CCC2c3c([nH]c4ccc(C)cc34)C3C(=O)N(N(C)C)C(=O)C3C2C1 (configuration not stated) | > 100 µM | > 100 µM | > 100 µM |  |  |  |
| O=C1CC2CC(CC3(CO3)C2)C1F (configuration not stated) | > 100 µM | > 100 µM | > 100 µM |  |  |  |
| Cc1ccsc1C(=S)Nc1ccc(Cl)c(/C=N/OC(C)C)c1 | 47.3 µM | > 100 µM | > 100 µM |  |  |  |
| COc1cc(CNc2c3ccccc3nc3ccccc23)cc(OC)c1OC | 7.14 µM | 21.3 µM | 24.3 µM |  |  |  |
| O=c1[nH]c(=O)n(CCOc2ccc(Cl)cc2)cc1Nc1ccccc1 | > 100 µM | > 100 µM | > 100 µM |  |  |  |
| COc1ccc(-c2nc3c(C(=O)NCCN(C)C)cccc3c3ccccc23)cc1 | 4.51 µM | 14.9 µM | 11.7 µM |  |  |  |
| CN(C)c1ccc(/C=C(\NC(=O)c2ccccc2)C(=O)Nc2cccc(C(=O)NCCCO)c2)cc1 | > 100 µM | > 100 µM | > 100 µM |  |  |  |

| SMILES | TGI (COLO 205 colon) | TGI (KM12 colon) | TGI (SNB-19 CNS) | GI50 (COLO 205 colon) | GI50 (KM12 colon) [µM] | GI50 (SNB-19 CNS) [µM] |
| --- | --- | --- | --- | --- | --- | --- |
| CCOc1cccc(-c2cc(=O)c3cc4c(cc3[nH]2)OCO4)c1 |  |  | > 27.1 µM |  |  |  |
| CNC(=O)C(CC(C)C)NC(=O)C(C)NC(=O)C(Cc1ccc(OCc2ccccc2)cc1)NC(=O)C(COCc1ccccc1)NC(=O)OC(C)(C)C (configuration not stated) (Boc-S(Bn)Y(Bn)AL-NHMe; configuration not given here) | 38.3 µM and 9.52 µM | > 44.2 µM and 40.3 µM | > 58 µM and 36.9 µM | 17.3 µM and 2.11 µM |  |  |
| CN(C)CC1CCC/C(=C\c2ccccc2)C1=O (configuration not stated) | 5.27 µM | 2.59 µM | 30.5 µM |  |  |  |
| Cc1cc(S(=O)(=O)NC(=NCCc2ccccc2)NN)c(S)cc1Cl | > 100 µM | 66.7 µM | 36.7 µM |  |  |  |
| CC(=O)Oc1ccc2cc(-c3ccc(OC(C)=O)c(OC(C)=O)c3)c(=O)oc2c1 | > 100 µM | 61.3 µM | > 100 µM |  |  |  |
| CC(C)(C)[Si](C)(C)OCC1OC(n2ccc(=O)[nH]c2=O)C(O[Si](C)(C)C(C)(C)C)[C@]12O[C@@H]2CO (some centres not stated) | 42.9 µM | 35 µM | 24 µM |  |  |  |
| CC(C)(C)n1c(=O)n2n(c1=O)C1c3cccc4cccc(c34)C2C2c3cccc4cccc(c34)C1n1c(=O)n(C(C)(C)C)c(=O)n12 | > 100 µM | > 100 µM | > 100 µM |  |  |  |
| Cc1cn(C2CCN(CC3COC(C)(C)O3)O2)c(=O)[nH]c1=O (configuration not stated) | > 100 µM | > 100 µM |  |  |  |  |
| CC(=O)Nc1cc2nc3n(c2cc1C)CCC3OC(C)=O (configuration not stated) | > 100 µM | > 100 µM | > 100 µM |  |  |  |
| C#CCOCn1cc(C)c(=O)[nH]c1=O | > 100 µM | > 100 µM | > 100 µM |  |  |  |
| O=C(Nc1cccc(C(=O)NCCCO)c1)/C(=C/c1ccccc1)NC(=O)c1ccccc1 | > 100 µM | > 100 µM | > 100 µM |  |  |  |
| C=CC1(c2ccc3ccccc3c2)OCC(CC)O1 (configuration not stated) | > 100 µM | > 100 µM | > 100 µM |  |  |  |
| COC(=O)[C@]12CSC[C@H]1C[C@H](c1cccc3ccccc13)N2 | > 100 µM | > 100 µM | > 100 µM |  |  |  |
| CCCC(=O)OC[n+]1ccc(-c2c(COC(=O)NC(C)C)c(COC(=O)NC(C)C)c3n2CCC3)cc1 | > 100 µM | > 100 µM | > 100 µM |  |  |  |
| O=C(CN=C(CN(c1ccccc1)c1ccccc1)Oc1ccc(Cl)cc1Cl)n1ccnc1 | > 100 µM | > 100 µM | > 100 µM |  |  |  |
| CCC(C)C(NC(=O)C(CC(C)C)NC(=O)CNC(=O)C(NC(=O)C1CCCN1C(=O)C(CC(C)C)NC(=O)C(N)Cc1ccccc1)C(C)CC)C(=O)NC(CC(C)C)C(N)=O (configuration not stated) (H-FLPIGLIL-NH2; configuration not given here) | > 75 µM | > 75 µM | > 75 µM |  |  |  |
| CCCCC1(O)CC2CC1C(C)C2(C)C (configuration not stated) | > 100 µM | > 100 µM | > 100 µM |  |  |  |
| CC(C)Cn1cnc2c(Cl)nc3ccccc3c21 | > 100 µM | > 100 µM | > 100 µM |  |  |  |
| Cn1cc(-c2nnc(-c3ccc(Cl)cc3)[nH]c2=O)c2ccccc21 | > 100 µM | > 23.9 µM | > 54.7 µM |  |  |  |
| CCCCCCCCCCOCCOCCOCCOCCCCC(O)CCCCCCCC1=C[C@H](C)OC1=O (some centres not stated) | 34.5 µM | 23.9 µM | 27.2 µM |  |  |  |

| SMILES | TGI (COLO 205 colon) | TGI (KM12 colon) | TGI (SNB-19 CNS) | GI50 (COLO 205 colon) | GI50 (KM12 colon) [µM] | GI50 (SNB-19 CNS) [µM] |
| --- | --- | --- | --- | --- | --- | --- |
| Cc1ccc(C(=O)Oc2ccc(/C=C3\CCC/C(=C\c4ccc(OC(=O)c5ccc(C)cc5)cc4)C3=O)cc2)cc1 | > 100 µM | > 100 µM | > 100 µM |  |  |  |
| CC(C(=O)n1ccnc1)N1c2ccccc2Sc2ccccc21 (configuration not stated) | > 100 µM | > 100 µM | > 100 µM |  |  |  |
| NC(=O)Cn1c(=O)oc2cc(C(=O)CN3CCOCC3)ccc21 | > 100 µM | > 100 µM | > 100 µM |  |  |  |
| O=[N+]([O-])/C(Cl)=C/C(=C1/Nc2ccccc2O1)[N+](=O)[O-] | 45.1 µM | 36.2 µM | 45.5 µM |  |  |  |
| Cc1ccccc1Nc1nc(NNC(=O)Cc2ccccc2)nc(NNC(=O)c2ccncc2)n1 | > 10 µM | > 10 µM |  |  |  |  |
| CS(=O)(=O)O[C@H]1[C@H](O)c2ccccc2[C@@H]1N=[N+]=[N-] | > 100 µM | > 100 µM | > 100 µM |  |  |  |
| CCOC(=O)C(NC(=O)CC)(Nc1ccc(F)cc1F)C(F)(F)F (configuration not stated) | > 100 µM |  | > 100 µM |  |  |  |
| O=S(=O)(c1cc(Cl)ccc1Cl)N1CCN(c2cccc(Cl)c2)CC1 |  | > 100 µM | > 100 µM |  |  |  |
| C/C=C\C(CC(=O)OC)CC(=O)N(CCC1CN(S(=O)(=O)C(F)(F)F)c2ccccc21)Cc1ccc(OC)cc1OC (configuration not stated) | > 100 µM | > 100 µM | > 100 µM |  |  |  |
| Nc1cc(Cl)ccc1SSc1ccc(Cl)cc1N | 35.9 µM | 24.6 µM | > 100 µM |  |  |  |
| O=C(O)C12CCC(CC1=O)C2 (configuration not stated) | > 100 µM | > 100 µM | > 100 µM |  |  |  |
| CCOC(=O)c1sc2nc1CSc1sc(=S)sc1SCc1nc(sc1C(=O)OCC)-c1nc(c(C(=O)OCC)s1)CSc1sc(=S)sc1SCc1nc-2sc1C(=O)OCC | > 10 µM | > 10 µM | > 10 µM |  |  |  |
| O=S(=O)(CCC[C@H]1[C@@H](CCOCc2ccccc2)C2CCCN1O2)c1ccccc1 (some centres not stated) | > 100 µM | > 100 µM | > 100 µM |  |  |  |
| C(#CC1(Nc2ccccc2)CCN(Cc2ccccc2)CC1)C1(Nc2ccccc2)CCN(Cc2ccccc2)CC1 | 3.5 µM | > 56.2 µM | 52.9 µM |  |  |  |
| Cc1cc2c(cc1Cl)SC(NNC1=NCCN1)=NS2(=O)=O | > 10 µM | > 10 µM | > 10 µM |  |  |  |
| CCOC(=O)N/N=C(\CC)OCC | > 100 µM | > 100 µM | > 100 µM |  |  |  |
| COC(=O)/N=[N+](\[O-])C(c1ccccc1)c1ccccc1 | > 100 µM | > 100 µM | > 100 µM |  |  |  |
| COC(=O)Cn1c(=O)oc2nc(-c3ccccc3)cc(C(F)(F)F)c21 | > 100 µM | > 100 µM | > 100 µM |  |  |  |
| O=CN1CCC23CC(O)CCC2C1Cc1cc(Oc2nnnn2-c2ccccc2)cc(O)c13 (configuration not stated) | > 100 µM | > 100 µM | > 100 µM |  |  |  |
